According to paper doi:10.1101/2021.04.29.441652v1 (biorxiv, 2021):

Each compound was assayed against human σ2 receptor (TMEM97) (Homo sapiens, UniProt Q5BJF2) (assay: biochemical). Conditions: read-out: % of control remaining.
Type: Expi293 membranes

Chain of human σ2 receptor (TMEM97) (Q5BJF2 whole entry): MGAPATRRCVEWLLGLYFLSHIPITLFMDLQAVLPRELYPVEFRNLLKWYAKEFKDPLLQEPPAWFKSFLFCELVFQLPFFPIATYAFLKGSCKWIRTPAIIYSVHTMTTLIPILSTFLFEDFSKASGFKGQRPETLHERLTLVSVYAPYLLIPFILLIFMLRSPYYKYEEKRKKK

Going from `O=C1CCCCN1C1CCN(C[C@H](O)C[C@]2(O)CCOC2)CC1` [ZINC000929842198] to `O=C(C1CC2(CCC2)C1)N1CCCN(C[C@@H](O)c2ccccc2)CC1` [ZINC000981787500], the remaining activity at 1 µM falls from 104% to 48.4%.

Compared with `O=C1[C@@H](N2CC[C@@H](C3OCCO3)C2)CCN1c1cccc(Br)c1` [ZINC000932000298], `CCN1CC[C@@H](N2CCC(NC(=O)c3cncnc3C)CC2)C1=O` [ZINC001002391793] is higher in remaining activity at 1 µM: 75.9% for the first, 90.1% for the second.

Going from `CCOC(=O)[C@@H]1CCN(C[C@@H](O)COc2cccc(C)c2)C1` [ZINC000932649435] to `O[C@H](CN1CC[C@@H](Cc2nccs2)C1)c1c(F)cccc1F` [ZINC000934332177], the remaining activity at 1 µM falls from 69.5% to 34%.

Going from `Cc1csc2nc(CN[C@](C)(CO)Cc3ccc(F)cc3)cc(=O)n12` [ZINC000933438523] to `Cc1cc(C(=O)N2CC[C@H](NCc3cccc(Cl)c3F)C2)ncn1` [ZINC001018723708], the remaining activity at 1 µM rises from 28.1% to 101%.

Going from `C[C@H]1CCCN1CC(=O)N(C)[C@H]1CCN(C(=O)C2CCOCC2)C1` [ZINC000936344871] to `C[C@H]1CCCN1CC(=O)N(C)[C@H]1CCN(C(=O)CC(C)(C)O)C1` [ZINC000937267298], the remaining activity at 1 µM rises from 82.7% to 111%.

Compared with `Cc1nc(C)c(CC(=O)N2CC[C@H](NC(=O)c3cnn[nH]3)C2)c(O)n1` [ZINC000938242679], `Cn1nc(C(=O)N[C@@H]2CCN(C(=O)Cc3cscn3)C2)ccc1=O` [ZINC000942457739] is lower in remaining activity at 1 µM: 107% for the first, 89.4% for the second.

Compared with `Cc1cc(NC(=O)C(=O)N2CC[C@@H](NC(=O)c3cncn3C)C2)no1` [ZINC000941361883], `Cc1cnoc1C(=O)NC1CN(C(=O)[C@@H]2CCN(C)S2(=O)=O)C1` [ZINC000998978244] is lower in remaining activity at 1 µM: 111% for the first, 98.3% for the second.

First: CCN1CC[C@@H](NC(=O)c2ccnc(-n3cncn3)c2)C[C@@H]1C [ZINC000948091407]
Second: Cc1cccc(F)c1C(=O)NCC1CCN(CCn2cncn2)CC1 [ZINC001002178741]
The remaining activity at 1 µM of the first is higher: 112% for the first, 109% for the second.

Compared with `Cc1cc(C)nc(C(=O)N2CC[C@H]2CNC(=O)[C@@H]2CCN(C)C2)c1` [ZINC000950078544], `Cc1ccc(C(=O)NC[C@H]2CN(C(=O)[C@@H]3CCN(C)C3)CCCO2)o1` [ZINC001019525589] is lower in remaining activity at 1 µM: 108% for the first, 85% for the second.

Going from `CN(C(=O)c1cccnn1)C1CN(C(=O)[C@H]2CCC[C@H]3CCCN32)C1` [ZINC000955102158] to `O=C(NCC1CN(C(=O)[C@H]2CC[C@H]3CCCCN32)C1)c1cnccn1` [ZINC001000730978], the remaining activity at 1 µM falls from 111% to 81.3%.

Going from `CN(C(=O)c1c[nH]c(=O)cn1)C1CN(C(=O)c2n[nH]c3c2CCC3)C1` [ZINC000955144887] to `CCC(=O)N1CCN([C@H]2CCN(C(=O)c3c[nH]c(=O)cn3)C2)CC1` [ZINC000956566890], the remaining activity at 1 µM rises from 96.9% to 112%.

First: O=C(C1CCCC1)N1CCC[C@H]([C@@H]2CCN(C/C=C\Cl)C2)C1 [ZINC000961091031]
Second: Cc1n[nH]cc1C(=O)NC1CN(C(=O)[C@H]2C[C@@H]3CCCCN3C2)C1 [ZINC000997292482]
The remaining activity at 1 µM of the first is lower: 33% for the first, 87.9% for the second.

First: Cc1c(C(=O)N[C@@H]2CN(C(=O)C3=COCCC3)C[C@@H]2O)cnn1C [ZINC000961583379]
Second: CCc1c(C(=O)N[C@@H]2CN(C(=O)c3n[nH]cc3C)C[C@@H]2O)cnn1C [ZINC000968717635]
The remaining activity at 1 µM of the first is lower: 91.1% for the first, 94.6% for the second.

First: O=C([C@H]1CCOC1)N1CCOC2(C1)CN(C(=O)[C@@]1(F)CCOC1)C2 [ZINC000965338365]
Second: C[C@@H](NC(=O)c1cnnn1C)C1CN(C(=O)C23CCCN2CCC3)C1 [ZINC001006004942]
The remaining activity at 1 µM of the first is lower: 99.1% for the first, 126% for the second.

Going from `COc1ccc(C(=O)N[C@@H]2CN(C(=O)C3(C)CCC3)C[C@@H]2O)nn1` [ZINC000970553575] to `Cn1nccc1C(=O)N1C[C@@H](O)[C@H](NC(=O)c2c[nH]nc2C2CC2)C1` [ZINC001025444165], the remaining activity at 1 µM rises from 92.8% to 95.7%.

Compared with `Cc1cc(C(=O)N2CC[C@H](N(C)Cc3ccc(C)c(C)c3)C2)on1` [ZINC000971070823], `CN(C[C@H]1CCCCO1)[C@@H]1CCN(C(=O)c2nc(Cl)cs2)C1` [ZINC000972168981] is lower in remaining activity at 1 µM: 90.9% for the first, 63.4% for the second.

`COCCN1C[C@H](C(=O)N[C@H]2C[C@H](NC(=O)c3cn[nH]c3)C2)CC1=O` [ZINC000973057271] and `C[C@@H]1CCN(CC(=O)N[C@H]2C[C@H](NC(=O)c3cnnc(O)c3)C2)C1` [ZINC000973375109] are the same in remaining activity at 1 µM: 111% for the first, 111% for the second.

Going from `Cn1nncc1C(=O)NC[C@H]1CC[C@@H](NC(=O)c2cnns2)C1` [ZINC000981250423] to `Cc1c(C(=O)NC2CN(C(=O)c3cnns3)C2)ccc2cncn12` [ZINC000995014137], the remaining activity at 1 µM rises from 97.2% to 123%.

Compared with `CC(C)=CC(=O)N1CC[C@@H](CNC(=O)c2ccn(CCN(C)C)n2)C1` [ZINC000982403760], `O=C(NCC1CCN([C@H]2CCNC2=O)CC1)c1ccn(C(F)F)n1` [ZINC001001445660] is lower in remaining activity at 1 µM: 104% for the first, 92.1% for the second.

Going from `CCn1ncnc1CN1CCCN(C(=O)C[C@H]2CC(=O)NC2=O)CC1` [ZINC000989806749] to `Cn1ccc(N2CC[C@@H](N[C@H]3CCN(C(=O)CC4CCC4)C3)C2=O)n1` [ZINC001018665695], the remaining activity at 1 µM rises from 118% to 120%.

First: CCc1noc(C)c1C(=O)NC1CN(C(=O)[C@H]2CCCCN2C)C1 [ZINC000991393621]
Second: CCc1nnsc1C(=O)NCC1CN(C(=O)[C@H]2CCCN2C)C1 [ZINC001003018745]
The remaining activity at 1 µM of the first is higher: 116% for the first, 85.7% for the second.

First: CN1CC[C@H](C(=O)NC2CN(C(=O)Cc3ccc(F)cn3)C2)CC1=O [ZINC000995125582]
Second: CC[C@@H](C(N)=O)N1CCC(NC(=O)[C@H]2Cc3ccc(Cl)cc32)CC1 [ZINC001004070100]
The remaining activity at 1 µM of the first is higher: 102% for the first, 85.5% for the second.

First: CC(C)NC1CCN(C(=O)Cn2cnc(C(N)=O)n2)CC1 [ZINC000996610565]
Second: O=C(Cn1cnnn1)N1CC(CNC(=O)C23CCCN2CCC3)C1 [ZINC001003297636]
The remaining activity at 1 µM of the first is higher: 114% for the first, 72.3% for the second.

Compared with `O=C1NCC[C@@H]1C(=O)N[C@H]1CCN(CCn2cc(Cl)cn2)C1` [ZINC001015510639], `O=C([C@H]1Cc2ccccc21)N1CC[C@H](NCc2ccncc2Cl)C1` [ZINC001019309159] is higher in remaining activity at 1 µM: 87.4% for the first, 99.6% for the second.

First: C[C@@]1(C(=O)N[C@H]2CC23CCN(CC(=O)NC2CC2)CC3)CCNC1=O [ZINC001016825715]
Second: Cc1nc(O)[nH]c1C(=O)NC[C@H]1CCN([C@H](C)C(=O)NC2CC2)C1 [ZINC001028614115]
The remaining activity at 1 µM of the first is lower: 106% for the first, 115% for the second.

Going from `Cc1nc(CN[C@H]2C[C@H](NC(=O)Cn3ncn(C)c3=O)C2)cs1` [ZINC001020327691] to `Cc1ccccc1CN[C@H]1C[C@H](NC(=O)c2cn(C)c(=O)nc2O)C1` [ZINC001021041334], the remaining activity at 1 µM falls from 102% to 86.2%.

Compared with `Cn1cc(CN[C@H]2C[C@H](NC(=O)c3cccc(C(N)=O)n3)C2)cn1` [ZINC001021109191], `Cc1cc(C(=O)NC[C@@H]2CCN(CC(=O)Nc3cnccn3)C2)on1` [ZINC001028403773] is higher in remaining activity at 1 µM: 106% for the first, 109% for the second.

`C[C@@H](C(N)=O)N1CCC[C@H](CNC(=O)c2nn(C)c3c2CCCC3)C1` [ZINC001023604137] showed a remaining activity at 1 µM of 89.3%.
